The values that follow come from publication PMC9814400 (Communications Chemistry, 2022).

Assay [1] has as its target T1, p97-ND1 (Homo sapiens, UniProt P55072).
T1 construct: His6 (TEV protease-cleavable) (N); made in house
Nature of the assay: BLI dose-response binding to the p97-ND1 construct. An excerpt:
As starting point for the initial screen, a BLI binding assay was developed with a p97-ND1 construct (amino acids 2-481) to allow validation with adenosine diphosphate (ADP) as a positive control. The p97-ND1 construct was enzymatically biotinylated via an Avi-Tag and Escherichia coli biotin ligase[28] and loaded to high response (>5 nm) on Super Streptavidin Biosensors (SSA), yielding a homogeneous sensor surface. […] The kinetic analysis of the sensorgrams indicated a clear 1:1 binding model for ADP. […] Another surprising result were the high responses upon ADP-binding with shifts over 0.7 nm. These high values indicate that the BLI signal is not only dependent on the molar weight as in SPR but may also reflect conformational changes induced in p97 upon ADP binding.
For 12 fragments, a dose-dependent binding was observed and a 1:1 Langmuir model could be applied to obtain the respective KD value. The determined KD^(p97-ND1) values mostly agreed well with those previously determined for the respective fragments with the isolated N-domain. […] TROLL1 and VIK40 were therefore not considered further.
(§1) Protein constructs for BLI measurements were enzymatically biotinylated using BirA[28]. Biotinylated p97 was loaded on Super Streptavidin Biosensors (SSA) obtained from Sartorius as follows. SSA-sensors were equilibrated in PBS-buffer, loaded with a protein solution containing 50 µg/mL (p97-ND1) or 100 µg/mL (p97-N) protein, blocked with biocytin and washed in PBS buffer. Reference SSA-sensors were set up by blocking them with a 10 µg/mL biocytin solution for 5 min[27]. The SSA-sensors were loaded to a shift of up to 7 nm with p97-ND1 and 10 nm with p97-N, respectively.
(§2) Screening plates were prepared by adding 10 µL of a 10 mM DMSO stock solution of library compound to 190 µL of PBS buffer (containing 0.05% TWEEN 20, 1 mM DTT and 5 mM MgCl2 [only for p97-ND1]) in 96 well plates (Greiner). The final DMSO concentration was 5% (v/v). All BLI measurements were performed on an Octet RED96e (Sartorius) device.
(§3) Selected fragments of the initial screenings were confirmed by dose-response-titrations using six concentrations ranging from 1000 to 31.3 µM in a 1:1 dilution series. Every concentration was measured twice. The assay settings were as follows: baseline measurement 15 s; association time 120 s and dissociation time 180 s. The double referenced data were further analyzed in Origin Pro to estimate the affinity by fitting the signals of the steady states to a 1:1 Langmuir model. For the fitting all measured data points (n = 2) were considered.

The target of a further assay is p97 ND1 fragment. The following applies: read-out: reported affinity of ADP, cited from earlier work.
Another assay concerns the target T2, p97-N (Homo sapiens, UniProt P55072).
T2 construct: Constructs of p97-N (aa 21-199, N-terminal 3 C protease-cleavable His6-tag); His6 (3C protease-cleavable) (N); made in house
Description: BLI dose-response binding to the isolated N-domain of p97. The following applies: for Kd: BLI steady state, 1:1 Langmuir model, errors from the fitting model; for LLEAT: based on KD for p97-N, heavy atom count and clogP; for ScoreBLI: based on sensorgrams from measurements with p97-N, about 1.0 or above = 1:1 binder; for LE: ligand efficiency based on KD for p97-N. As for the experimental part: The selected 42 fragments of the screen with the N-domain were tested in a dose-dependent manner using concentrations from 1000.0 µM to 31.3 µM in 1:1 dilution steps. […] The sensorgrams of these fragments were fitted with a 1:1 Langmuir model to estimate their affinities and analyzed with respect to the following parameters: (i) The presence of a stationary phase; (ii) curve shapes according to either a homogeneous (1:1) or a heterogeneous (2:1) binding model, and (iii) justification of a 1:1 binding model via the obtained empirical constants kobs of the association phase. Based on these analyses, a ScoreBLI was calculated (for details see Supplementary Methods in the Supporting Information). The calculated ScoreBLI should be close to or above 1.0 for ligands that can be described with a 1:1 model, whereas ligands showing unspecific binding yield values << 1.0. Based on the ScoreBLI, we divided the fragments into a low-scoring (<0.70) and a high-scoring (≥0.70) group.
as §1, §2, §3
Definition of the quality score “ScoreBLI”
For selecting fragments for further analysis, the ScoreBLI was def ined as : […]
SSSSSSSSSSBBBBBB = rrmmmmmmmm 1:1rrmmmmmmmm 2:12 SSkkkkkkkk rmean 1:12 is the mean of the r2 coefficients of t he r egr es s ions of all association phases measured f or a given f ragment. The data were f itted with a 1:1 binding model:
RRPP = RRPPee ?1 − SS −(kkkkkkkk PP ) ? with RRPP the shift at the time t, k obs the empirical rate constant and RRPPee the shift at equilibrium.
In analogy, the rmean 2:12 was def ined by f itting with a 2:1 binding model:
RRPP = RRPPee 1 ?1 − SS −(kkkkkkkk1 PP) ? + RRPPee 2 ?1 − SS −(kkkkkkkk2 PP) ? A ligand f ollowing a 1:1 model would result in a good rmean2 f or both functions, whereas f or a lig and which is better described with a 2:1 model the rmean2 f or a 1:1 model would decrease, resulting in an overall decreased value.
In case of a 1:1 model the empirical rate constant k obs is proportional to the concentration of […]
kkkkkkkk = kkPP [LL ] + kkdd with ka t he association rate constant and kd t he dissociation rate constant. Theref ore, all observed empirical rate constants of a ligand were subjected to a linear regression model, which yielded the value r kobs2 .
A Langmuir model was used to es t im at e the affinities of the fragments. The use of this model requires that a chemical equilibrium is reached. To analyze whether this condition was met, the responses of the last 10 seconds of each association phase were f itted with a linear model. […]

In assay [2] the target is T1, p97-ND1. Nature of the assay: STD-NMR with p97-ND1 in the presence of 500 µM ADP. Set-up: key to mean STD-effect (ND1) / maximum STD-effect (ND1): STD effect = Idiff/Ioff × 100 (%). The following applies: for maximum STD-effect (ND1) / mean STD-effect (ND1): Supplementary Table 3; for STD (maximum STD signal measured with p97-ND1): aromatic resonances, 428 µM fragment, 30 µM protein, 500 µM ADP. The format is binding. As for the experimental part:
The NMR measurements were carried out with the biologically more relevant p97-ND1 construct in the presence of 500 µM ADP to block the nucleotide binding site. The STD effect was calculated by dividing the intensity of the difference spectrum by the intensity of the off-spectrum (Idiff/ Ioff × 100) for each signal. For further analysis only resonances in the aromatic region of the ^1H NMR spectrum of the individual ligand were considered. A mean STD effect of each fragment interacting with p97-ND1 was calculated using the sum of the individual STD effects divided by the number of signals considered. Furthermore, the maximum STD effect of each compound was determined. […] Similar results were obtained in the previously reported fragment screen with p97[26]. An overview of the STD effects is shown in Supplementary Fig. 4.
All Saturation-Transfer-Difference (STD)[32] measurements were performed on a Bruker Avance III 400 MHz spectrometer (Karlsruhe, Germany) operating at 400.13 MHz with a PABBI 1H/D-BB Z-GRD inverse probe at 300 K adjusted with a BSVT (Bruker) temperature control unit. Temperature calibration was carried out with 99.8% CD3OD (282–330 K). The stddiffesgp.3 pulse program from the Bruker pulseprogram library was used for data acquisition. The suppression of the HDO signal (4.703 ppm) was achieved by the excitation sculpting method. The saturation frequency for the on- and off-resonances was set to −400 Hz and −16,000 Hz, respectively. The saturation time was 3 s with a relaxation delay D1 of 4 s.
The protein stock solutions were transferred to a deuterated buffer containing 35 mM potassium phosphate and 25 mM NaCl in D2O at a pD of 7.5 using 0.5 mL Centricon devices (Merck Millipore) with a MWCO of 30 kDa by washing and centrifuging several times at 10,000 × g and 4 °C. Buffer-exchanged protein was adjusted to a concentration of 30 µM with NMR buffer. The respective fragment concentration was 428 µM with a final DMSO-d6 fraction of 5% (v/v). All measurements were performed in the presence of 500 µM ADP (in case of the ND1 domain) and 5 mM MgCl2. All data were analyzed using TopSpin 4.0.8 (Bruker Corporation, Billerica, MA, USA).

The next assay deals with T3, N-domain of p97 (Homo sapiens, UniProt P55072).
T3 construct: additional STD measurements with the isolated N-domain were carried out; made in house
T3 sequence (P55072 21-199 limits assumed): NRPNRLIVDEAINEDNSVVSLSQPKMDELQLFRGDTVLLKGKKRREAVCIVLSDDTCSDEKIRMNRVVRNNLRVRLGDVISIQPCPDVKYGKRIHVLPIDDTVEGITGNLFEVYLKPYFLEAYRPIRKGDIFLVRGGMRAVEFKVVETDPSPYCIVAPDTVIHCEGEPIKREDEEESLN
Nature of the assay: STD-NMR build-up measurements with the isolated N-domain. In kind it is binding. As for the experimental part: To obtain additional information about the putative binding mode of the selected fragments, full STD-NMR build-up curves were measured for the fragments TROLL2, TROLL7, TROLL8 and TROLL12 and the initial rates of STD build-up (STD0) were calculated. […] As expected, the saturation effects were higher for the ND1 construct compared to the isolated N-domain due to the stronger nuclear Overhauser effect (NOE) of the much larger protein. Because of water suppression, not all hydrogens of the selected fragments were experimentally accessible. For the remaining hydrogen atoms, different STD0 values were determined, indicating a defined orientation of the fragments upon binding to p97 (Supplementary Fig. 7). For TROLL2, TROLL7 and TROLL12 a clear dominance in the saturation of the protons at the hydrophobic aromatic parts of the molecules was visible.
For binding epitope mapping of selected fragments, the initial growth rates approach was used as described. For determination of the initial rate of STD build up (STD0) the STD intensities for seven saturation times (0.5, 0.75, 1.0, 1.5, 2.0, 3.0, 5.0 s) were measured for the ND1 as well as for the isolated N-domain and fitted by an exponential equation using R. The recycle delay (d1) was set to 5 s. For each fragment also a negative control without protein was measured with a saturation time of 5.0 s. Theoretical STD0 values on the basis of the obtained X-ray crystal structure as well as for representative mixed-solvent MD poses were calculated using the Complete Relaxation and Conformational Exchange Matrix Analysis of Saturation Transfer (CORCEMA-ST) software version 3.8[72] and ShiftX version 1.1[73]. Predicted and experimental STD-data were evaluated using the NOE R-factor (see Supplementary Methods in the Supporting Information).

Where [3] appears, read: BLI steady state, 1:1 Langmuir model, errors from the fitting model, read-out: KD p97-ND1.

SMILES strings stand for the structures. Like-named read-outs stand apart in the source and are kept apart here.

T1 sequence (P55072 2-481): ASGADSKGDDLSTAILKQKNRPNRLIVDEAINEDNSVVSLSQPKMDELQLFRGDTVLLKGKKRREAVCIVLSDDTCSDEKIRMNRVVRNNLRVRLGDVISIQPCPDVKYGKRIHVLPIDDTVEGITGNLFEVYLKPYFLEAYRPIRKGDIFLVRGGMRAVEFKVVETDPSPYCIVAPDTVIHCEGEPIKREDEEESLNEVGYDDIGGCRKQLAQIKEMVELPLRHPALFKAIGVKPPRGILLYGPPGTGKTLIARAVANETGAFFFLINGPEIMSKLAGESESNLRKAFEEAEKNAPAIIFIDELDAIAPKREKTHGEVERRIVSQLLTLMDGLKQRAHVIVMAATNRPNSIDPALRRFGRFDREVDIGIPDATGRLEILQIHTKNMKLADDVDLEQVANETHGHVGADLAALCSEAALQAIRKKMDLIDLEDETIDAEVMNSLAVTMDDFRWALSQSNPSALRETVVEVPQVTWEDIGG
T2 sequence (P55072 21-199): as the sequence (P55072 21-199 limits assumed) above

On to `Nc1ncnc2c1ncn2[C@@H]1O[C@H](COP(=O)(O)OP(=O)(O)O)[C@@H](O)[C@H]1O` [ADP, adenosine diphosphate, reference compound], for which the Kd at p97-ND1 [1] (Langmuir model, steady state measurements of a dilution series, read-out: KD of ADP to p97-ND1 (steady state)) is 0.2 ± 0.014 µM; on p97-ND1 [1] (global exponential regression, 1:1 binding model, read-out: affinity of ADP to p97-ND1 (kinetic analysis)) it was 0.239 ± 0.009 µM; at p97 ND1 fragment (ND1 fragment spanning amino acids 1-458), 0.2 µM; on p97 ND1 fragment (ND1 fragment spanning amino acids 1-480), 0.098 µM. Besides, the ScoreBLI at p97-ND1 [1] (score evaluated with binding data for ADP) turned out to be 1.02.
On p97-N, `O=C(O)Cc1cc2ccccc2[nH]1` [TROLL6] gave a Kd of 160 ± 22 µM, an LLEAT of 0.30, a ScoreBLI of 0.75 and an LE of 0.39. Besides, on p97-ND1 [2], the “maximum STD-effect (ND1)” value is 72.5, the “mean STD-effect (ND1)” value worked out at 66.5 and the “STD (maximum STD signal measured with p97-ND1)” value stood at 72.5%. On p97-ND1 [1] (setting [3]), the Kd was found to be 243 ± 16 µM.
At p97-N, `NCC(O)c1ccc(Cl)cc1` (centres unmarked) [TROLL7] had an LLEAT of 0.42, a ScoreBLI of 0.91 and an LE of 0.45. On p97-ND1 [2], the “maximum STD-effect (ND1)” value stood at 37.3, the “mean STD-effect (ND1)” value is 34.5 and the “STD (maximum STD signal measured with p97-ND1)” value is 37.3%. Also, the “binding to the N-domain by STD-NMR” value at N-domain of p97 is recorded as “confirmed the binding”.
Regarding `Cc1ccc(-c2csc3nc(CO)cn23)cc1` [TROLL14], at p97-N, the Kd worked out at 409 ± 61 µM, the LLEAT was determined as 0.16, the ScoreBLI was 0.93 and the LE was 0.27. On p97-ND1 [2], the “maximum STD-effect (ND1)” value worked out at 67.4, the “mean STD-effect (ND1)” value is 55.4 and the “STD (maximum STD signal measured with p97-ND1)” value is 67.4%. For the same compound, on p97-ND1 [1] (setting [3]), the Kd amounted to 290 ± 33 µM.
For `Nc1[nH]ncc1-c1ccc(Cl)cc1` [TROLL18], on p97-N, the Kd was 625 ± 89 µM, the LLEAT is recorded as 0.27, the ScoreBLI is 0.89 and the LE is 0.33. Besides, on p97-ND1 [2], the “maximum STD-effect (ND1)” value is on record as 57.4, the “mean STD-effect (ND1)” value turned out to be 54.3 and the “STD (maximum STD signal measured with p97-ND1)” value amounted to 57.4%. Besides, on p97-ND1 [1] (setting [3]), the Kd is 445 ± 223 µM.
For `Nc1nc2c(s1)CN(Cc1ccccc1)CC2` [VIK20], at p97-N, the Kd is 147 ± 32 µM, the LLEAT came out at 0.27, the ScoreBLI is listed as 0.94 and the LE stood at 0.30. On p97-ND1 [2], the “maximum STD-effect (ND1)” value came to 18.3, the “mean STD-effect (ND1)” value is 18.3 and the “STD (maximum STD signal measured with p97-ND1)” value is recorded as 18.3%. In addition, the Kd on p97-ND1 [1] (setting [3]) is 192 ± 92 µM.
